Residues, ends and D or L forms follow the SMILES beside them. *: point of attachment. Cbz = O=C(OCc1ccccc1)*
How the values were obtained:
Assay type in all cases: cell-based
[1] = system: BJ cells (normal fibroblast cell line); experiment: MTT cell viability assay, BJ; settings: for IC50: BJ, MTT; for effect on BJ cell proliferation: 30 μmol/L, 72 h
Method: (§1) This assay was carried out using thiazolyl blue tetrazolium bromide (MTT; Sigma), as described in previous studies.12 Cell viability was calculated using the formula: (OD of experimental well/OD of control well) × 100%.
(§2) Figure 1 High Levels of IAPs in MB Cells Correspond to Sensitivity to IAP Inhibitors LBW242 or LCL161. A, The levels of IAPs and p21 in MB cell lines DAOY, D283MED and normal controls HA‐h and BJ were determined by immunoblotting. Their levels in MB cells were quantitated, normalized by GAPDH, presented in a bar graph, and compared to those in HA‐h cells. B, DAOY, D283MED, HA‐h, and BJ cell lines were treated with LBW242 or LCL161 at different concentrations (0, 5, 10, 20, and 40 μmol/L) and DMSO (control) for 72 h. Cell viability was determined by MTT assay. Data are represented as mean ± SEM of three independent experiments (*P < 0.05, **P < 0.01, and ***P < 0.005)

D283MED cells [2] = experiment: Apoptosis by Annexin V/PI and FACS, D283MED; settings: Annexin V‐positive population by FACS
[3] = system: HA‐h cells (human astrocyte‐hippocampal); experiment: MTT cell viability assay, HA‐h; settings: for IC50: HA‐h, MTT; for effect on HA‐h cell proliferation: 30 μmol/L, 72 h
Method: as §1, §2

DAOY cells [4] = experiment: Cell cycle analysis (PI, FACS), DAOY; settings: siRNA with DMSO control, vincristine or cisplatin, Fig. S2
Method: (§3) MB cells were harvested following treatment with reagents. Cells were fixed with 70% ethanol, and then stored at −20°C overnight. Subsequent to equilibrating to room temperature, the cells were permeabilized with PBS containing 0.5% Triton X‐100 and 0.05% RNAse followed by staining with 50 μg/mL propidium iodide (PI; Sigma) at 4°C for 30 minutes. Finally, DNA content was detected by fluorescence‐activated cell sorting (FACS; Beckman Coulter Epics XL, Brea, CA, USA), and data were analyzed by EXPO32 ADC software (Beckman‐Coulter, USA).
(§4) A, MB cells were treated with DMSO (control), vincristine (1.25 nmol/L for DAOY and 2.5 nmol/L for D283MED), or cisplatin (0.31 μmol/L for DAOY and 0.625 μmol/L for D283MED), or in combination with LCL161 (10 μmol/L) or LBW242 (10 μmol/L) for 72 h. Thereafter, cells were harvested and their DNA contents were analyzed by FACS. B, The proportion of each cell cycle compartment was shown in bar graphs.

DAOY cells [5] = experiment: MTT cell viability assay, DAOY
Method: as §1, §2

D283MED cells [6] = experiment: Cell cycle analysis (PI, FACS), D283MED; settings: siRNA with DMSO control, vincristine or cisplatin, Fig. S2
Method: as §3, §4

DAOY cells [7] = experiment: Apoptosis by Annexin V/PI and FACS, DAOY; settings: Annexin V‐positive population by FACS
D283MED cells [8] = experiment: MTT cell viability assay, D283MED
Method: as §1, §2

ubiquitination of p21 = experiment: Immunoprecipitation of p21, ubiquitination (Ub‐HA); settings: MB cells, in the presence of MG‐132 for 6 hours
Method: (§5) To observe ubiquitination or neddylation of p21, anti‐p21 antibody (Cell Signaling Technology) and Meg‐Beads‐Protein G (TOOLs) were added into total cell lysates collected from MB cells after transfected with plasmid overexpressing ubiquitin‐hemagglutinin (HA; Addgene, Cambridge, MA, USA) or NEDD8‐HA (Addgene) and treated with MG‐132 for 6 hours. Thereafter, immunoprecipitates were analyzed by immunoblotting with anti‐HA antibody (Sigma).
(§6) Figure 6 IAP Antagonist LBW242 Attenuates p21‐Interacted cIAP1 Expression and Neddylation of p21. A, To examine the ubiquitination of p21, MB cells were transfected with the plasmid carrying ubiquitin (Ub)‐HA and then treated with LBW242 combined with MG‐132 for 6 h. Total cell lysates were used for immunoprecipitation of p21, and subsequently applied to immunoblotting for detection of Ub‐HA, cIAP1, and cIAP2. B, To detect the neddylation of p21, MB cells were transfected with the plasmid overexpressing NEDD8‐HA, treated with MG‐132 and LBW242, and then subjected to immunoprecipitation. C, To examine whether cIAP1 dominates neddylation of p21, MB cells were co‐transfected with cIAP1 siRNA and NEDD8‐HA overexpressed plasmid, treated with MG‐132 for 6 h, and then applied to immunoprecipitation. D, DAOY cells were treated with MG‐132 for 6 h, and stained by immunofluorescence with anti‐cIAP1, anti‐cIAP2, and anti‐p21 antibodies. […]

[9] = system: MB cells (DAOY and D283MED); experiment: MTT cell viability / proliferation, stated for MB cells together; settings: 30 μmol/L, 72 h
Method: as §1, §2

neddylation of p21 = experiment: Immunoprecipitation of p21, neddylation (NEDD8‐HA); settings: MB cells, in the presence of MG‐132 for 6 hours
Method: as §5, §6

p21 RNA = experiment: RT‐PCR analysis of p21 RNA in MB cells; settings: DAOY and D283MED
From the text: Total RNA was extracted using trizole reagent (Easypure Total RNA Reagent) and converted into cDNA product using iScript cDNA Synthesis Kit (BIO‐RAD, Hercules, CA, USA). The cDNA product was mixed with PCR Master Mix reagent (Promega, Madison, WI, USA) and PCR primers, and then subjected to 1% agarose gel electrophoresis. The target gene expression was normalized by GAPDH. Primer sequences for p21 are 5′‐[…]‐3′ (forward) and 5′‐GGGCTTCCTCTTGGA‐GAAGAT‐3′ (reverse); primer sequences for cIAP1 are 5′‐[…]‐3′ (forward) and 5′‐[…]‐3′ (reverse); primer sequences for cIAP2 are 5′‐[…]‐3′ (forward) and 5′‐CAAGTAGATGAGGGTAA‐CTGGC‐3′ (reverse); primer sequences for GAPDH are 5′‐TGAAGGTCGGAGTCA‐ACGGATTTGGT‐3′ (forward) and 5′‐[…]‐3′ (reverse).

cIAP1 = experiment: Immunoblotting of IAPs in MB cells, time course; settings: 10 μmol/L, in 60 minutes, DAOY and D283MED
From the text: (§7) Antibody against XIAP, cIAP2, p21, or p53 was purchased from Cell Signaling Technology (Danvers, MA, USA); antibody for detection of cIAP1, cIAP1/2, p27, p16, GAPDH, cyclin A, or cyclin B1 was purchased from Santa Cruz Biotechnology (Dallas, TX, USA); antibodies against CDK1 and CDK2 were bought from Millipore (Burlington, MA, USA) and Upstate Biotechnology, respectively. The blotting membrane was developed using enhanced chemiluminescence (ECL) substrate (Millipore), and analyzed by densitometry and Image J (National Institutes of Health, USA).
(§8) Figure 4 IAPs Inhibition Increases the Protein Levels of p21, which are Governed by Proteasomal Degradation. A, DAOY and D283MED cells were incubated with LBW242 (10 μmol/L) for 0‐360 min. Total cell lysates were collected at different time points and then subjected to immunoblotting. B, The protein levels of cIAP1 and p21 were quantitated, normalized by the levels of GAPDH, and shown in the curve graphs. C, MB cells were transfected with siRNAs against cIAP1 or cIAP2, and nontargeting (NT) siRNA, and protein levels of cIAP1, cIAP2, and p21 were detected by immunoblotting. D, MB cells were treated with MG‐132, CHX, and MNL4924 to verify p21 protein degradation. The levels of p21 were analyzed by immunoblotting

p21 = experiment: Immunoblotting of p21 protein in MB cells; settings: DAOY and D283MED
From the text: as §7, §8

[10] = system: CDK1, CDK2, cyclin A and cyclin B1; experiment: Immunoblotting of G2/M transition‐related proteins in MB cells; settings: 72 h
From the text: as §7, §4

[11] = cisplatin alone or with IAP inhibitor (10 μmol/L)
[12] = cisplatin 72 h, with or without siRNA transfection
[13] = Homo sapiens, vincristine alone or with IAP inhibitor (10 μmol/L)

With N.N.[Cl][Pt][Cl] [Cisplatin, cisplatin] the IC50 [1, 11] was over 5000 nM, the “Apoptosis (%)” value (D283MED cells [2]) was 55.3 ± 3.5% and the IC50 [3, 11] was over 5000 nM. The “G2/M (proportion of cells)” value (DAOY cells [4]) was 16.70%, the IC50 (DAOY cells [5]; [12]) was 740 ± 60 nM and the IC50 (DAOY cells [5]; [11]) was 1800 ± 100 nM. The “G2/M (proportion of cells)” value (D283MED cells [6]) was 19.10%, the “Apoptosis (%)” value (DAOY cells [7]) was 13.3 ± 2.4% and the IC50 (D283MED cells [8]; [12]) was over 2500 nM. It also gave an IC50 (D283MED cells [8]; [11]) of 1200 ± 250 nM.
With CN[C@@H](C)C(=O)N[C@H](C(=O)N1CC[C@H]2CCN(CCc3ccccc3)C[C@H]21)C1CCCCC1 [LBW242] the “effect on BJ cell proliferation” value [1] was “only mildly slowed”, the “Apoptosis (%)” value (D283MED cells [2]) was 20.1 ± 0.3% and the “ubiquitination of p21” value (ubiquitination of p21) was “no effect”. The “effect on HA‐h cell proliferation” value [3] was “only mildly slowed”, the “inhibition of proliferation activities” value [9] was 50% and the “neddylation of p21” value (neddylation of p21) was “reduced neddylation of p21”. For the same molecule, the “p21 transcriptional (RNA) levels” value (p21 RNA) was “does not affect p21 RNA levels”, the cIAP1 protein expression (cIAP1) was “effectively inhibited cIAP1 rather than cIAP2 or XIAP expression” and the “Apoptosis (%)” value (DAOY cells [7]) was 22.6 ± 1.2%. The p21 protein expression (p21) was “enhances p21 expression” and the “protein levels of CDK1, CDK2, cyclin A and cyclin B1” value [10] was “decreased”.
For CN[C@@H](C)C(=O)N[C@H](C(=O)N1CCC[C@H]1c1nc(C(=O)c2ccc(F)cc2)cs1)C1CCCCC1 [LCL161], the “effect on BJ cell proliferation” value [1] was “only mildly slowed”, the “Apoptosis (%)” value (D283MED cells [2]) was 14.0 ± 0.4% and the “effect on HA‐h cell proliferation” value [3] was “only mildly slowed”. The inhibition at 30 µM ([9]; read-out: inhibition of proliferation activities) was 50%, the “Apoptosis (%)” value (DAOY cells [7]) was 17.2 ± 2.5% and the “protein levels of CDK1, CDK2, cyclin A and cyclin B1” value [10] was “decreased”.
In the case of CC(C)C[C@@H](C=O)NC(=O)[C@H](CC(C)C)NC(=O)[C@H](CC(C)C)NC(=O)OCc1ccccc1 [MG‐132] (Cbz-Leu-Leu-Leu-aldehyde), the p21 protein expression (p21) is reported as “accumulated in a time‐dependent manner”.
NS(=O)(=O)OC[C@@H]1C[C@@H](n2ccc3c(N[C@H]4CCc5ccccc54)ncnc32)C[C@@H]1O [MLN4924] was tested, and the p21 protein expression (p21) was “accumulated in a time‐dependent manner”.
In the case of CC[C@]1(O)C[C@H]2CN(CCc3c([nH]c4ccccc34)[C@@](C(=O)OC)(c3cc4c(cc3OC)N(C=O)[C@H]3[C@@](O)(C(=O)OC)[C@H](OC(C)=O)[C@]5(CC)C=CCN6CC[C@]43[C@@H]65)C2)C1 [Vincristine], the IC50 ([1]; Homo sapiens, chemotherapeutic agent alone or with IAP inhibitor (10 μmol/L)) is reported as over 5 nM, the “Apoptosis (%)” value (D283MED cells [2]) is reported as 34.4 ± 2.4% and the IC50 [3, 13] is reported as over 20 nM. The “G2/M (proportion of cells)” value (DAOY cells [4]) was 18.28%, the IC50 (DAOY cells [5]; Homo sapiens, vincristine 72 h, with or without siRNA transfection) was 3.47 ± 0.28 nM and the IC50 (DAOY cells [5]; [13]) was 5.5 ± 0.61 nM. The “G2/M (proportion of cells)” value (D283MED cells [6]) was 21.20%, the “Apoptosis (%)” value (DAOY cells [7]) was 6.0 ± 2.1% and the IC50 (D283MED cells [8]; Homo sapiens, D283 Med, vincristine 72 h, with or without siRNA transfection) was over 5 nM. For the same molecule, the IC50 (D283MED cells [8]; Homo sapiens, D283 Med, vincristine alone or with IAP inhibitor (10 μmol/L)) was 5.7 ± 0.47 nM.
In the case of C[C@@H]1C[C@@H]([C@H](O)CC2CC(=O)NC(=O)C2)C(=O)[C@@H](C)C1 [cycloheximide], the p21 protein expression (p21) is reported as “decreased p21 protein levels after 30 minutes”.

From PMC6089189, “Targeting inhibitors of apoptosis proteins suppresses medulloblastoma cell proliferation via G2/M phase arrest and attenuated neddylation of p21” (Cancer Medicine, 2018)
